Data taken from patent US6479435B1, “Diaryl ethers and processes for their preparation and herbicidal and desiccant compositions containing them” (ISK Americas Incorporated, priority 1997, dated 2002).

Legend:
Type in all cases: in vivo
[1] = system: ivyleaf morningglory (Ipomoea hederacea, IPOHE); test: Pre-emerge greenhouse herbicide test, phytotoxicity rating; conditions: Ipomoea, pre-emergence, 336 h, 14 days after application, rating scale 0-100; for pest or weed control at 125 g/ha: Rate 125 g al/ha; for pest or weed control at 500 g/ha: Rate 500 g al/ha
Outline: (§1)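 Seeds sown in sandy loam one day before track-sprayer application of acetone solutions at 125–1000 g ai/ha (187 l/ha), then surface-watered to incorporate and bottom-watered. Injury scored visually at 14 days on a 0–100 scale (0 no damage, 100 complete death).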

[2] = system: lambsquarters (Chenopodium album, CHEAL); test: as above; conditions: Chenopodium album, pre-emergence, 336 h, 14 days after application, rating scale 0-100; for pest or weed control at 125 g/ha: Rate 125 g al/ha; for pest or weed control at 500 g/ha: Rate 500 g al/ha
Outline: as §1

[3] = system: large crabgrass (Digitaria sanguinalis, DIGSA); test: as above; conditions: Digitaria sanguinalis, pre-emergence, 336 h, 14 days after application, rating scale 0-100; for pest or weed control at 125 g/ha: Rate 125 g al/ha; for pest or weed control at 500 g/ha: Rate 500 g al/ha
Outline: as §1

[4] = system: redroot pigweed (Amaranthus retroflexus, AMARE); test: as above; conditions: Amaranthus retroflexus, pre-emergence, 336 h, 14 days after application, rating scale 0-100; for pest or weed control at 125 g/ha: Rate 125 g al/ha; for pest or weed control at 500 g/ha: Rate 500 g al/ha
Outline: as §1

[5] = system: sicklepod (Cassia obtusifolia, CASOB); test: as above; conditions: Senna obtusifolia, pre-emergence, 336 h, 14 days after application, rating scale 0-100; for pest or weed control at 125 g/ha: Rate 125 g al/ha; for pest or weed control at 500 g/ha: Rate 500 g al/ha
Outline: as §1

[6] = system: velvetleaf (Abutilon theophrasti, ABUTH); test: as above; conditions: Abutilon theophrasti, pre-emergence, 336 h, 14 days after application, rating scale 0-100; for pest or weed control at 125 g/ha: Rate 125 g al/ha; for pest or weed control at 500 g/ha: Rate 500 g al/ha
Outline: as §1

[7] = system: Johnsongrass (Sorghum halepense, SORHA); test: Post-emerge greenhouse herbicide test, phytotoxicity rating; conditions: Sorghum halepense, post-emergence, 336 h, 14 days after application, scale 0-100; for pest or weed control at 63 g/ha: rate 63 g ai/ha; for pest or weed control at 500 g/ha: rate 500 g ai/ha
Outline: (§2)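 Plants at the 2-3 leaf stage, sown 8-21 days earlier, were track-sprayed post-emergence with compound in acetone plus 0.25% v/v non-ionic surfactant at 63-1000 g ai/ha (187 l/ha). Damage was rated at 14 days on a 0-100 scale (0 none, 100 all plants dead), for both crop injury and weed control.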

[8] = system: barnyardgrass (Echinochloa crusgalli, ECHCG); test: as above; conditions: Echinochloa crus-galli, post-emergence, 336 h, 14 days after application, scale 0-100; for pest or weed control at 63 g/ha: rate 63 g ai/ha; for pest or weed control at 500 g/ha: rate 500 g ai/ha
Outline: as §2

[9] = system: green foxtail (Setaria viridis, SETVI); test: as above; conditions: Setaria viridis, post-emergence, 336 h, 14 days after application, scale 0-100; for pest or weed control at 63 g/ha: rate 63 g ai/ha; for pest or weed control at 500 g/ha: rate 500 g ai/ha
Outline: as §2

[10] = system: ivyleaf morningglory (Ipomoea hederacea, IPOHE); test: as above; conditions: Ipomoea, post-emergence, 336 h, 14 days after application, scale 0-100; for pest or weed control at 63 g/ha: rate 63 g ai/ha; for pest or weed control at 500 g/ha: rate 500 g ai/ha
Outline: as §2

[11] = system: lambsquarters (Chenopodium album, CHEAL); test: as above; conditions: Chenopodium album, post-emergence, 336 h, 14 days after application, scale 0-100; for pest or weed control at 63 g/ha: rate 63 g ai/ha; for pest or weed control at 500 g/ha: rate 500 g ai/ha
Outline: as §2

[12] = system: large crabgrass (Digitaria sanguinalis, DIGSA); test: as above; conditions: Digitaria sanguinalis, post-emergence, 336 h, 14 days after application, scale 0-100; for pest or weed control at 63 g/ha: rate 63 g ai/ha; for pest or weed control at 500 g/ha: rate 500 g ai/ha
Outline: as §2

[13] = system: redroot pigweed (Amaranthus retroflexus, AMARE); test: as above; conditions: Amaranthus retroflexus, post-emergence, 336 h, 14 days after application, scale 0-100; for pest or weed control at 63 g/ha: rate 63 g ai/ha; for pest or weed control at 500 g/ha: rate 500 g ai/ha
Outline: as §2

[14] = system: sicklepod (Cassia obtusifolia, CASOB); test: as above; conditions: Senna obtusifolia, post-emergence, 336 h, 14 days after application, scale 0-100; for pest or weed control at 63 g/ha: rate 63 g ai/ha; for pest or weed control at 500 g/ha: rate 500 g ai/ha
Outline: as §2

[15] = system: velvetleaf (Abutilon theophrasti, ABUTH); test: as above; conditions: Abutilon theophrasti, post-emergence, 336 h, 14 days after application, scale 0-100; for pest or weed control at 63 g/ha: rate 63 g ai/ha; for pest or weed control at 500 g/ha: rate 500 g ai/ha
Outline: as §2

SMILES	pest or weed control at 125 g/ha [1] [%]	pest or weed control at 500 g/ha [1] [%]	pest or weed control at 125 g/ha [2] [%]	pest or weed control at 500 g/ha [2] [%]	pest or weed control at 125 g/ha [3] [%]	pest or weed control at 500 g/ha [3] [%]	pest or weed control at 125 g/ha [4] [%]	pest or weed control at 500 g/ha [4] [%]	pest or weed control at 125 g/ha [5] [%]	pest or weed control at 500 g/ha [5] [%]	pest or weed control at 125 g/ha [6] [%]	pest or weed control at 500 g/ha [6] [%]	pest or weed control at 500 g/ha [7] [%]	pest or weed control at 500 g/ha [8] [%]	pest or weed control at 500 g/ha [9] [%]	pest or weed control at 500 g/ha [10] [%]	pest or weed control at 500 g/ha [11] [%]	pest or weed control at 500 g/ha [12] [%]	pest or weed control at 500 g/ha [13] [%]	pest or weed control at 500 g/ha [14] [%]	further results
N#Cc1ccc(Oc2cc(-n3c(=O)cc(C(F)(F)F)n(N)c3=O)c(F)cc2Cl)nc1 [Compound 9-10, 1-Amino-3-[4-chloro-2-fluoro-5-(5-cyano-2-pyridyloxy)phenyl]-6-trifluoromethyl-1,2,3,4-tetrahydropyrimidine-2,4-dione]	100	100	100	100	90	100	100	100	100	100	100	100	95	95	70	100	100	20	80	50	pest or weed control at 63 g/ha [7]: 60%; pest or weed control at 63 g/ha [8]: 20%; pest or weed control at 63 g/ha [9]: 20%; pest or weed control at 63 g/ha [10]: 100%; pest or weed control at 63 g/ha [11]: 100%; pest or weed control at 63 g/ha [12]: 10%; pest or weed control at 63 g/ha [13]: 100%; pest or weed control at 63 g/ha [14]: 40%; pest or weed control at 63 g/ha [15]: 100%; pest or weed control at 500 g/ha [15]: 100%
Nn1c(C(F)(F)F)cc(=O)n(-c2cc(Oc3ccc([N+](=O)[O-])cn3)c(Cl)cc2F)c1=O [Compound 9-11, 1-Amino-3-[4-chloro-2-fluoro-5-(5-nitro-2-pyridyloxy)phenyl]-6-trifluoromethyl-1,2,3,4-tetrahydropyrimidine-2,4-dione]	10	100	100	100	30	95	100	100	10	20	100	100	80	50	40	100	100	80	100	80	pest or weed control at 63 g/ha [7]: 20%; pest or weed control at 63 g/ha [8]: 0%; pest or weed control at 63 g/ha [9]: 20%; pest or weed control at 63 g/ha [10]: 100%; pest or weed control at 63 g/ha [11]: 80%; pest or weed control at 63 g/ha [12]: 40%; pest or weed control at 63 g/ha [13]: 100%; pest or weed control at 63 g/ha [14]: 30%; pest or weed control at 63 g/ha [15]: 100%; pest or weed control at 500 g/ha [15]: 100%
Cc1nsc(Oc2cc(-n3c(=O)cc(C(F)(F)F)n(N)c3=O)c(F)cc2Cl)c1[N+](=O)[O-] [Compound 9-14, 1-Amino-3-[4-Chloro-2-fluoro-5-(3-methyl-4-nitroisothiazol-5-yloxy)phenyl]-6-trifluoromethyl-1,2,3,4-tetrahydropyrimidine-2,4-dione]	100	100	100	100	100	100	100	100	100	90	100	100	100	100	100	100	100	100	100	100	pest or weed control at 63 g/ha [7]: 40%; pest or weed control at 63 g/ha [8]: 10%; pest or weed control at 63 g/ha [9]: 80%; pest or weed control at 63 g/ha [10]: 95%; pest or weed control at 63 g/ha [11]: 80%; pest or weed control at 63 g/ha [12]: 30%; pest or weed control at 63 g/ha [13]: 100%; pest or weed control at 63 g/ha [14]: 60%; pest or weed control at 63 g/ha [15]: 100%; pest or weed control at 500 g/ha [15]: 100%
Nn1c(C(F)(F)F)cc(=O)n(-c2cc(Oc3ccccn3)c(Cl)cc2F)c1=O [Compound 9-15, 1-amino-3-[4-chloro-2-fluoro-5-(2pyridyloxy)phenyl]-6-trifluoromethyl-1,2,3,4-tetrahydropyrimidine-2,4-dione]	100	100	100	100	100	10	100	100	95	100	100	100	100	99	100	100	100	100	100	100	pest or weed control at 125 g/ha ([7]; rate 125 g ai/ha): 95%; pest or weed control at 125 g/ha ([8]; rate 125 g ai/ha): 90%; pest or weed control at 125 g/ha ([9]; rate 125 g ai/ha): 95%; pest or weed control at 125 g/ha ([10]; rate 125 g ai/ha): 100%; pest or weed control at 125 g/ha ([11]; rate 125 g ai/ha): 100%; pest or weed control at 125 g/ha ([12]; rate 125 g ai/ha): 90%; pest or weed control at 125 g/ha ([13]; rate 125 g ai/ha): 100%; pest or weed control at 125 g/ha ([14]; rate 125 g ai/ha): 100%; pest or weed control at 125 g/ha ([15]; rate 125 g ai/ha): 100%; pest or weed control at 500 g/ha [15]: 100%
